The values below come from patent publication US10604526B2, “Chemokine receptor modulators and uses thereof” (RAPT THERAPEUTICS, INC., priority 2016, dated 2020).

Bounds are passed on as bounds.

The IC50 is the concentration at which inhibition is half-maximal.

This assay deals with T1, hCCR4 (Homo sapiens, UniProt P51679).
T1 sequence (P51679 1-360): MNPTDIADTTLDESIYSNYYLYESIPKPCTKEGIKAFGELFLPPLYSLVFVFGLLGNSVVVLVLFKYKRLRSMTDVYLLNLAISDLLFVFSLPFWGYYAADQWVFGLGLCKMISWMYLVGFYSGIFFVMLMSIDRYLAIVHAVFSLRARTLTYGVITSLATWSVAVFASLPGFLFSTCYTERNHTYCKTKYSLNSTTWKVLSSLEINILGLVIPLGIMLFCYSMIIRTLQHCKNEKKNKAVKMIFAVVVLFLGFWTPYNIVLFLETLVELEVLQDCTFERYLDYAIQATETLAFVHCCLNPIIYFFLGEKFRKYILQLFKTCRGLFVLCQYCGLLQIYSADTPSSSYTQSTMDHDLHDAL
The experiment in a line: Calcium flux assay. In kind it is cell-based. Conditions: Chem5-hCCR4 cells, CCL22 at EC80 of 1.5 nM, FLIPR Calcium 6 dye; read-out: Potency (IC50). The procedure: Calcium Flux Assay. Compounds were evaluated in a calcium flux assay substantially performed as follows. Chem5-hCCR4 cells (EMD Millipore, Hayward, Calif.; HTS009C) were cultured under standard conditions and frozen in aliquots of 10×10^6 cells/mL. The day prior to compound testing, a vial was rapidly thawed and pipetted into 20 mL media (DMEM+10% FBS+1% Pen-Strep+1% L-glutamine). Cells were harvested by centrifugation and re-suspended in fresh culture medium. 25 μL of cell suspension was seeded into 384-well plates (Corning, Tewksbury, Mass.; CellBind with black wall/clear bottom). The plates were centrifuged at 300 g for 10 seconds and incubated overnight at 37° C. and 5% CO2. The day of compound testing, media was removed from the plates and 25 μL serum free media was added to each well. Plates were returned to the incubator for 2 h. 25 μL assay buffer (Hank's balanced salt solution+20 mM HEPES pH 7.4) containing FLIPR Calcium 6 dye (Molecular Devices, Sunnyvale, Calif.; # R8191) and probenecid (2.5 mM) was added to each well and incubated at 37° C. and 5% CO2 for 2 h. Compounds in DMSO were added to the plates using an HP D300e digital dispenser, and all wells were normalized to contain 0.25 μL (0.5%) DMSO. Plates were incubated for 1 hour at 37° C. and 5% CO2. CCL22 (Peprotech; Rockyhill, N.J.) was diluted in assay buffer containing 0.1% BSA to 7.5 nM (corresponding to 5×EC80 of 1.5 nM).
Assay plates and working solution of CCL22 were transferred to the FlexStation plate reader (Molecular Devices) at 37° C. for 5 min of equilibration. Fluorescence recordings at 485 excitation/525 emission were performed at 2.5 second intervals. At t=16 seconds, 12.5 μL of CCL22 solution was added to each well and reads continued for 30 seconds at 2.5 second intervals. The minimum fluorescence (Fmin) was calculated by averaging the reads prior to ligand addition and the change in fluorescence (ΔF) was calculated by subtracting the Fmin from the average of the reads following ligand addition. The response ΔF/Fmin was plotted as a function of the compound concentration and the IC50 values were determined by non-linear regression analysis using a 4-parameter fit in either PRISM software (GraphPad; La Jolla, Calif.) or Dotmatics Browser.
(Calcium flux is commonly read through the fluorescence of an indicator in the cells.)

Regarding `C[C@H](c1ccc(Cl)cc1Cl)n1nc(C(F)(F)F)c2ncc(N3CC([C@@H]4CCCN(CCCS(C)(=O)=O)C4)C3)nc21` (single isomer, unassigned) [Example 115], the IC50 lay in the range of 0.1 to 0.5 µM.

For `Cc1nn([C@H](C)c2ccc(Cl)cc2Cl)c2nc(N3CC([C@@H]4CCCN(CCC(N)=O)C4)C3)cnc12` (single isomer, unassigned) [Example 12], the IC50 lay within 0.1 to 0.5 µM.

As for `CC(=O)NCCN1CCC[C@@H](C2CN(c3cnc4c(C(F)(F)F)nn([C@H](C)c5ccc(Cl)cc5Cl)c4n3)C2)C1` (single isomer, unassigned) [Example 53], the IC50 lay in the range of 0.1 to 0.5 µM.

In the case of “N-(2-((R)-3-(1-(1-((R)-1-(2,4-dichlorophenyl)ethyl)-3-(trifluoromethyl)-1H-pyrazolo[3,4-b]pyrazin-6-yl)azetidin-3-yl)piperidin-1-yl)ethyl)propane-2-sulfonamide and N-(2-((S)-3-(1-(1-((R)-1-(2,4-dichlorophenyl)ethyl)-3-(trifluoromethyl)-1H-pyrazolo[3,4-b]pyrazin-6-yl)azetidin-3-yl)piperidin-1-yl)ethyl)propane-2-sulfonamide [Example 66]”, the IC50 was below 0.1 µM.

As to `Cc1nn([C@H](C)c2ccc(Cl)cc2Cl)c2nc(N3CC([C@@H]4CCCN(CCCS(C)(=O)=O)C4)C3)cnc12` (single isomer, unassigned) [Example 113], the IC50 lay in the range of 0.1 to 0.5 µM.

For `CC(C)S(=O)(=O)NCCN1CCC[C@@H](C2CN(c3cnc4c(C(F)(F)F)nn([C@H](C)c5ccc(Cl)cc5Cl)c4n3)C2)C1` (single isomer, unassigned) [Example 110], the half-inhibitory concentration (IC50) was in the range of 0.1 to 0.5 µM.

For `C[C@H](c1ccc(Cl)cc1Cl)n1nc(C#N)c2ncc(N3CC([C@@H]4CCCN(CCC(N)=O)C4)C3)nc21` (single isomer, unassigned) [Example 25], the IC50 was below 0.1 µM.

With `C[C@H](c1ccc(Cl)cc1Cl)n1nc(C#N)c2ncc(N3CC([C@H]4CCCN(CC(C)(C)O)C4)C3)nc21` (single isomer, unassigned) [Example 71], the IC50 was below 0.1 µM.

On to `Cc1nn([C@H](C)c2ccc(Cl)cc2Cl)c2nc(N3CC([C@@H]4CCCN(CCNS(=O)(=O)C(C)C)C4)C3)cnc12` (single isomer, unassigned) [Example 96], for which the IC50 was in the range of 0.1 to 0.5 µM.

Consider `CC(=O)N[C@@H](C)CN1CCC[C@H](C2CN(c3cnc4c(C(F)(F)F)nn([C@H](C)c5ccc(Cl)cc5Cl)c4n3)C2)C1` [Example 106, N—((S)-1-((R)-3-(1-(1-((R)-1-(2,4-dichlorophenyl)ethyl)-3-(trifluoromethyl)-1H-pyrazolo[3,4-b]pyrazin-6-yl)azetidin-3-yl)piperidin-1-yl)propan-2-yl)acetamide], for which the IC50 was below 0.1 µM.

As to “1-((R)-1-(2,4-Dichlorophenyl)ethyl)-6-(3-((S)-1-(2-hydroxyethyl)piperidin-3-yl)azetidin-1-yl)-1H-pyrazolo[3,4-b]pyrazine-3-carboxamide and 1-((S)-1-(2,4-dichlorophenyl)ethyl)-6-(3-((S)-1-(2-hydroxyethyl)piperidin-3-yl)azetidin-1-yl)-1H-pyrazolo[3,4-b]pyrazine-3-carboxamide [Example 41]”, the concentration for half-maximal inhibition (IC50) was below 0.1 µM.

In the case of `C[C@H](c1ccc(Cl)cc1Cl)n1nc(C#N)c2ncc(N3CC([C@H]4CCCN(CCCC(N)=O)C4)C3)nc21` (single isomer, unassigned) [Example 78], the IC50 was below 0.1 µM.

Regarding `COC(=O)NCCN1CCC[C@H](C2CN(c3cnc4c(C)nn([C@H](C)c5ccc(Cl)cc5Cl)c4n3)C2)C1` (single isomer, unassigned) [Example 84], the IC50 is below 0.1 µM.

With `COC(=O)NCCN1CCCC(C2CN(c3cnc4c(C(F)(F)F)nn([C@H](C)c5ccc(Cl)cc5Cl)c4n3)C2)C1` (mixture of isomers) [Example 49, Methyl (2-((R)-3-(1-(1-((R)-1-(2,4-dichlorophenyl)ethyl)-3-(trifluoromethyl)-1H-pyrazolo[3,4-b]pyrazin-6-yl)azetidin-3-yl)piperidin-1-yl)ethyl)carbamate and methyl (2-((S)-3-(1-(1-((R)-1-(2,4-dichlorophenyl)ethyl)-3-(trifluoromethyl)-1H-pyrazolo[3,4-b]pyrazin-6-yl)azetidin-3-yl)piperidin-1-yl)ethyl)carbamate], the half-maximal inhibitory concentration (IC50) is below 0.1 µM.

Regarding `CCCN1CCC[C@H](C2CN(c3cnc4c(C#N)nn([C@H](C)c5ccc(Cl)cc5Cl)c4n3)C2)C1` (single isomer, unassigned) [Example 73], the IC50 was below 0.1 µM.

Turning to `Cc1nn([C@H](C)c2ccc(Cl)cc2Cl)c2nc(N3CC([C@H]4CCCN(CCC(N)=O)C4)C3)cnc12` (single isomer, unassigned) [Example 13], the 50% inhibitory concentration (IC50) was below 0.1 µM.

In the case of `CNC(=O)CCCN1CCC[C@@H](C2CN(c3cnc4c(C#N)nn([C@H](C)c5ccc(Cl)cc5Cl)c4n3)C2)C1` (single isomer, unassigned) [Example 68], the IC50 lay within 0.1 to 0.5 µM.

Take `CC(O)CN1CCC[C@H](C2CN(c3cnc4c(C#N)nn([C@H](C)c5ccc(Cl)cc5Cl)c4n3)C2)C1` (single isomer, unassigned) [Example 28]: the IC50 is below 0.1 µM.

As for `Cc1nn([C@H](C)c2ccc(Cl)cc2Cl)c2nc(N3CC([C@H]4CCCN(CCO)C4)C3)ncc12` (single isomer, unassigned) [Example 38], the IC50 was below 0.1 µM.

Consider `Cc1nn([C@H](C)c2ccc(Cl)cc2Cl)c2nc(N3CC(C4CCCN(CCO)C4)C3)ncc12` (mixture of isomers) [Example 37, 2-((S)-3-(1-(1-((R)-1-(2,4-Dichlorophenyl)ethyl)-3-methyl-1H-pyrazolo[3,4-d]pyrimidin-6-yl)azetidin-3-yl)piperidin-1-yl)ethan-1-ol and 2-((R)-3-(1-(1-((R)-1-(2,4-dichlorophenyl)ethyl)-3-methyl-1H-pyrazolo[3,4-d]pyrimidin-6-yl)azetidin-3-yl)piperidin-1-yl)ethan-1-ol], for which the IC50 was below 0.1 µM.

With `C[C@H](c1ccc(Cl)cc1Cl)n1nc(C#N)c2ncc(N3CC(C4CCCN(C5CCOCC5)C4)C3)nc21` (mixture of isomers) [Example 62, 1-((R)-1-(2,4-dichlorophenyl)ethyl)-6-(3-((R)-1-(tetrahydro-2H-pyran-4-yl)piperidin-3-yl)azetidin-1-yl)-1H-pyrazolo[3,4-b]pyrazine-3-carbonitrile and 1-((R)-1-(2,4-dichlorophenyl)ethyl)-6-(3-((S)-1-(tetrahydro-2H-pyran-4-yl)piperidin-3-yl)azetidin-1-yl)-1H-pyrazolo[3,4-b]pyrazine-3-carbonitrile], the IC50 is below 0.1 µM.

Consider `CC(=O)NCCN1CCC[C@@H](C2CN(c3cnc4c(C#N)nn([C@H](C)c5ccc(Cl)cc5Cl)c4n3)C2)C1` (single isomer, unassigned) [Example 93], for which the half-inhibitory concentration (IC50) was below 0.1 µM.

Turning to `CC(=O)NCCN1CCCC(C2CN(c3cnc4c(C(F)(F)F)nn([C@H](C)c5ccc(Cl)cc5Cl)c4n3)C2)C1` (single isomer, unassigned) [Example 87], the IC50 is below 0.1 µM.

Regarding `Cc1nn([C@H](C)c2ccc(Cl)cc2Cl)c2nc(N3CC([C@@H]4CCCN(CCNC(=O)C(C)C)C4)C3)cnc12` (single isomer, unassigned) [Example 91], the IC50 is below 0.1 µM.

As to `CNS(=O)(=O)CCN1CCCC(C2CN(c3cnc4c(C#N)nn([C@H](C)c5ccc(Cl)cc5Cl)c4n3)C2)C1` (mixture of isomers) [Example 57, 2-(S)-3-(1-(3-cyano-1-((R)-1-(2,4-dichlorophenyl)ethyl)-1H-pyrazolo[3,4-b]pyrazin-6-yl)azetidin-3-yl)piperidin-1-yl)-N-methylethane-1-sulfonamide and 2-((R)-3-(1-(3-cyano-1-((R)-1-(2,4-dichlorophenyl)ethyl)-1H-pyrazolo[3,4-b]pyrazin-6-yl)azetidin-3-yl)piperidin-1-yl)-N-methylethane-1-sulfonamide], the IC50 is below 0.1 µM.
